{"source": "ChEMBL document CHEMBL1201862", "about": "“PubChem BioAssay data set” (2004)", "key": {"[1]": {"assay": "viability of HCT116 lacking mutant beta-catenin – cell-based, human colon tumor, dose response (AID 1045);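 also: HCT116 colon tumor cells with beta catenin knocked out; cells exposed to compound for 60 hours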", "assay_type": "functional"}, "[2]": {"assay": "viability of PTEN-deleted HCT116 cells – cell-based, HCT116 PTEN knockout, dose response (AID 1047);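 also: HCT116 colon tumor cells with PTEN knocked out; cells exposed to compound for 60 hours before readout; potency for loss of cell viability measured by luminescence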", "assay_type": "functional"}, "[3]": {"target": "T1, Rac GTPase-activating protein 1 (Homo sapiens, UniProt Q9H0H5)", "T1 sequence (Q9H0H5 whole entry)": "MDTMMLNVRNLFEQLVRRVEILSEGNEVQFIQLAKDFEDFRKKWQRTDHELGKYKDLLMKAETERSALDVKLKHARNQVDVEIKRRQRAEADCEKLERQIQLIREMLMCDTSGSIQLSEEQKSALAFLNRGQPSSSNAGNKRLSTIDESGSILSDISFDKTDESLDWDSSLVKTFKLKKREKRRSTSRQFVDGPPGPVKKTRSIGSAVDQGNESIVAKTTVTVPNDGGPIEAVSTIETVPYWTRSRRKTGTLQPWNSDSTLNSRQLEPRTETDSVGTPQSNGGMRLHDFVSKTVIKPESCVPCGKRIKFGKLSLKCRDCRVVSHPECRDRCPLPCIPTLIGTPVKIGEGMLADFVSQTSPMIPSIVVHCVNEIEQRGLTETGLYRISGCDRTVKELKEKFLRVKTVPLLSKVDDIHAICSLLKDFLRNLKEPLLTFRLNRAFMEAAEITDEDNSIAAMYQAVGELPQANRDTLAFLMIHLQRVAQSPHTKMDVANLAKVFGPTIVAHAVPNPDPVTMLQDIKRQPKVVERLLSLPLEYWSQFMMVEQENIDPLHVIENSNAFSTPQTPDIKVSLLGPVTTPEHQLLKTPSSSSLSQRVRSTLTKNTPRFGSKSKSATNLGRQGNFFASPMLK", "assay": "blockers of MgcRacGAP-driven Rac1 GTP hydrolysis – biochemical, ADP Hunter fluorescence, primary and confirmatory, confirmation (AID 624330)", "assay_type": "functional"}, "[4]": {"assay": "non-specific 3'UTR reporter inhibition in Clone20-Shn3RL – cell-based, Renilla luciferase, cherry-picked, counter-screen for Shn3 inhibitor project, dose response (AID 624133)", "assay_type": "functional"}, "[5]": {"assay": "reduction of Shn3 3'UTR-driven luciferase in osteoblasts – cell-based, Clone20 osteoblasts, firefly luciferase, cherry-picked, dose response (AID 624132)", "assay_type": "functional"}, "[6]": {"assay": "loss of viability in HepG2 cells – cell-based, CellTiter-Glo, cherry-picked, cytotoxicity control for Shn3 inhibitor project, dose response (AID 624134)", "assay_type": "functional"}, "[7]": {"target": "T2, Carboxy-terminal domain RNA polymerase II polypeptide A small phosphatase 1 (Homo sapiens, UniProt Q9GZU7)", "T2 sequence (Q9GZU7 whole entry)": "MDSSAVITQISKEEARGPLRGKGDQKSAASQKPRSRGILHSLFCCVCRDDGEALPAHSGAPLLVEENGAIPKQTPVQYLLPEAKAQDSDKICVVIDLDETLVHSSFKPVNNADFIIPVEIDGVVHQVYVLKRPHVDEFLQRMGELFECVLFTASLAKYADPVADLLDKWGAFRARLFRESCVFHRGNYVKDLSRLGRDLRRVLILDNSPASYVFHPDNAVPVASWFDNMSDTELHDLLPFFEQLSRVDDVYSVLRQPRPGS", "assay": "CTDSP1 inhibitors, concentration-response, biochemical, absorbance readout, ultra-high-throughput screen actives (AID 540297)", "assay_type": "functional"}, "Protein skinhead-1": {"target": "T3, Protein skinhead-1 (Caenorhabditis elegans, UniProt P34707)", "T3 sequence (P34707 whole entry)": "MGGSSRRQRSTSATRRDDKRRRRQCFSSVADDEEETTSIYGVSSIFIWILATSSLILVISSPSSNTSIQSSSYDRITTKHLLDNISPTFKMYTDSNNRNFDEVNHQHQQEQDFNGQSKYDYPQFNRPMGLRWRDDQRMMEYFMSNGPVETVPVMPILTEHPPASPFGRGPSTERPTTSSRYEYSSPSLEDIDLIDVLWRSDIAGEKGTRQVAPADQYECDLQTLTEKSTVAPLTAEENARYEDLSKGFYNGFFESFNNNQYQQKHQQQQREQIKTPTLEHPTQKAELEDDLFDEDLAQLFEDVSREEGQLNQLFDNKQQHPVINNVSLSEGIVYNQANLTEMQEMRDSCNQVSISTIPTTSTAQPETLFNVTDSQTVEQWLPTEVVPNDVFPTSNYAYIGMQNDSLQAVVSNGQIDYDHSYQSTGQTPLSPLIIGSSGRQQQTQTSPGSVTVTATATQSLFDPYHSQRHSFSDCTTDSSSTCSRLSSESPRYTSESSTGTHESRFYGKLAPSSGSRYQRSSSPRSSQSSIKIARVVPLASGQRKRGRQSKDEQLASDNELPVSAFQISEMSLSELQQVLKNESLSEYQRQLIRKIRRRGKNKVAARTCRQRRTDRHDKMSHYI", "assay_type": "functional"}, "Genome polyprotein": {"target": "Genome polyprotein (dengue virus type 2, UniProt P29990)", "sequence (P29990 2492-3391 limits assumed)": "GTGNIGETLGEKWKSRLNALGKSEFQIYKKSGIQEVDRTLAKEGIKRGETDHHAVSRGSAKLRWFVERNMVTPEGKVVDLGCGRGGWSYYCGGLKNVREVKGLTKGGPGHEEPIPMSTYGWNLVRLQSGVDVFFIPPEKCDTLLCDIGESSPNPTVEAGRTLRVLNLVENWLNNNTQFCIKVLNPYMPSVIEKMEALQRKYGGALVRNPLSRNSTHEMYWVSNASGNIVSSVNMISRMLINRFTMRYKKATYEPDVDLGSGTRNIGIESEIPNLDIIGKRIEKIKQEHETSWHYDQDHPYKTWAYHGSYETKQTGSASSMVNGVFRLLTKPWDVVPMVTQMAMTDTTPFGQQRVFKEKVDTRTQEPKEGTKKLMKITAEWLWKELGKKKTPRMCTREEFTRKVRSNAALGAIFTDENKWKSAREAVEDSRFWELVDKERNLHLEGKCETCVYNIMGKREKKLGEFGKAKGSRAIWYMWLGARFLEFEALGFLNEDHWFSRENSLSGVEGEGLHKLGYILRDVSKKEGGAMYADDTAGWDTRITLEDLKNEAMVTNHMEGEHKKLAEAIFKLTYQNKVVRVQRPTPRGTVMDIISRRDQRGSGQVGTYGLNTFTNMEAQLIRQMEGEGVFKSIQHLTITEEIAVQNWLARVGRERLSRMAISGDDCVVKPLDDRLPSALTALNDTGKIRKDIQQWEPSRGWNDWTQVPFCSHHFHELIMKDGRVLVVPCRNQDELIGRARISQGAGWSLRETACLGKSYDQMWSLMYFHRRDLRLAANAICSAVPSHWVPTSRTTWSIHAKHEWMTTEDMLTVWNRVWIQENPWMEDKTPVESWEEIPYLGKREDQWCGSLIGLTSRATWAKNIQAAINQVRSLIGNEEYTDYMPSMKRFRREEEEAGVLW", "assay": "flavivirus cap methylation enzyme inhibition – biochemical, confirmation dose response, primary screen (AID 588689)", "assay_type": "functional"}, "[8]": {"target": "T4, Heat shock factor protein 1 (Mus musculus, UniProt P38532)", "T4 sequence (P38532 whole entry)": "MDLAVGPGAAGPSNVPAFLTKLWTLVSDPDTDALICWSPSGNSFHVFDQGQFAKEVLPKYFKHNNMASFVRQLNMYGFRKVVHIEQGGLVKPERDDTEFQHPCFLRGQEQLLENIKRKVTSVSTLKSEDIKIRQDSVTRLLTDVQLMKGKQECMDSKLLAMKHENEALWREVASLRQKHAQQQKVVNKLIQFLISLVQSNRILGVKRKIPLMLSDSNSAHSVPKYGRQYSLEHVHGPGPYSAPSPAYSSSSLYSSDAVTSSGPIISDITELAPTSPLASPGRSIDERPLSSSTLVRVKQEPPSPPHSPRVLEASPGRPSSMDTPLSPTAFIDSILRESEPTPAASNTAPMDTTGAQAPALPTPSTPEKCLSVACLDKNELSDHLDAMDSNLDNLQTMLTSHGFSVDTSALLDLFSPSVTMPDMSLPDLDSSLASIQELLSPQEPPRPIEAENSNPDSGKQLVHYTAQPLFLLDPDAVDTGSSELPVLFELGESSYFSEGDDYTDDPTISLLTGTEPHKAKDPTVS", "assay": "decrease of HSF1-responsive luciferase luminescence – cell-based, NIH3T3, dose retest, confirmation (AID 2382);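 also: NIH3T3 fibroblasts with HSF1-driven luciferase reporter stressed by proteasome inhibitor MG132; luminescence from HSF1-driven luciferase expression after 8 hours of MG132 stress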", "assay_type": "functional"}, "[9]": {"assay": "blockers of HIV-1 envelope-mediated cell-cell fusion – cherry-pick, dose response (AID 652057)", "assay_type": "functional, cell-based"}, "[10]": {"assay": "blockers of HIV-1 ZM109 envelope-driven cell-cell fusion – HeLa effector, CEM target cells, luciferase, cherry-pick, dose response (AID 652058)", "assay_type": "functional, cell-based"}, "[11]": {"assay": "HIV-1 AD8 envelope cell-cell fusion blockers – cherry-pick, dose response (AID 652062);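 also: potency is for inhibitors of fusion seen as a drop in luminescence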", "assay_type": "functional, cell-based"}, "[12]": {"assay": "off-target signal loss in HeLa-CEM21 co-culture – HeLa F-luc CTL cells, cherry-picked, counter-screen for HIV-1 Env fusion inhibitor project, dose response (AID 652040);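 also: potency for signal decrease marking cytotoxic or nonspecific inhibition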", "assay_type": "functional, cell-based"}, "Cytochrome P450 2C9": {"target": "Cytochrome P450 2C9 (Homo sapiens, UniProt P11712)", "sequence (P11712 whole entry)": "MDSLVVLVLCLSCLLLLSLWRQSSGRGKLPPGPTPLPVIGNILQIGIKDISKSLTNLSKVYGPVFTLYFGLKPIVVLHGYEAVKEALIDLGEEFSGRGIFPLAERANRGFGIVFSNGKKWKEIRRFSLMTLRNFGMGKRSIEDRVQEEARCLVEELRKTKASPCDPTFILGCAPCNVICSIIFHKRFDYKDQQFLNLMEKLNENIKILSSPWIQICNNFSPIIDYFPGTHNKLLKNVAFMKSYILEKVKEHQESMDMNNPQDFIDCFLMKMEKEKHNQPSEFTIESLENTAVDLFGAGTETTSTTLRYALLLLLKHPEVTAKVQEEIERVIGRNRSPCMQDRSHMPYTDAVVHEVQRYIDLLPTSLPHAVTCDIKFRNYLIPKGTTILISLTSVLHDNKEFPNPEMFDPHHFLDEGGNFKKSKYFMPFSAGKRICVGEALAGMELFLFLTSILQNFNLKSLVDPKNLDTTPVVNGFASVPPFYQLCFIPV"}}, "note": "Active and inactive are the calls of the source.", "data": [{"smiles": "O=C1CCCCCN1Sc1ccccc1", "values": [{"measurement": "EC50", "setting": "[1]", "value": "16.9 µM (active)"}, {"measurement": "EC50", "setting": "[2]", "value": "20.2 µM (active)"}, {"measurement": "IC50", "setting": "[3]", "value": "87.6 µM (active)"}]}, {"smiles": "COc1ccc(-n2c(C)cc(C(=O)CSc3nnc(-c4cccs4)o3)c2C)cc1", "values": [{"measurement": "AC50", "setting": "[4]", "value": "5.62 µM (active)"}, {"measurement": "AC50", "setting": "[5]", "value": "5.03 µM (active)"}, {"measurement": "AC50", "setting": "[6]", "value": "48.6 µM (active)"}]}, {"smiles": "O=C(O)c1cc(S(=O)(=O)N2CCN(S(=O)(=O)c3ccc4ccccc4c3)CC2)ccc1Br", "values": [{"measurement": "IC50", "setting": "[7]", "value": "6.22 µM (active)"}]}, {"smiles": "Cc1onc(-c2ccccc2)c1C(=O)Nc1nc2c(s1)C(=O)CC(C)(C)C2", "values": [{"measurement": "IC50", "setting": "Protein skinhead-1", "value": "> 100 µM (inactive)"}]}, {"smiles": "CC1(C)CC(=O)C(=Cc2cn(CCC#N)nc2-c2ccc(Cl)cc2)C(=O)C1", "values": [{"measurement": "IC50", "setting": "Genome polyprotein", "value": "31.8 µM (active)"}]}, {"smiles": "COc1ccc(/C=C(\\C#N)c2nc3cc(C)ccc3[nH]2)cc1Oc1ccc(C(F)(F)F)cc1[N+](=O)[O-]", "values": [{"measurement": "EC50", "setting": "[1]", "value": "8.78 µM (active)"}, {"measurement": "EC50", "setting": "[2]", "value": "4.59 µM (active)"}]}, {"smiles": "CCN(CC)CCC(c1cc(OC)c(OC)c(OC)c1)c1c(OC)cc(OC)c2c(C)cc(=O)oc12", "note": "(stereo unspecified)", "values": [{"measurement": "IC50", "setting": "Protein skinhead-1", "value": "> 100 µM (inactive)"}]}, {"smiles": "O=C(Cn1nnc(-c2ccccc2Cl)n1)N/N=C/c1ccc(-c2cccc(Cl)c2)o1", "values": [{"measurement": "EC50", "setting": "[1]", "value": "39.1 µM (active)"}, {"measurement": "EC50", "setting": "[2]", "value": "20.1 µM (active)"}]}, {"smiles": "CCOc1ccc2nc(NC(=O)c3cc([N+](=O)[O-])ccc3N3CCOCC3)sc2c1", "values": [{"measurement": "EC50", "setting": "[1]", "value": "48.5 µM (active)"}, {"measurement": "EC50", "setting": "[2]", "value": "23.3 µM (active)"}, {"measurement": "EC50", "setting": "[8]", "value": "15 µM (active)"}]}, {"smiles": "CCOC(=O)[C@@H]1[C@H]2COc3ccc(Br)cc3[C@@H]2N2C(=O)N(c3cccc(F)c3)C(=O)[C@@]12C", "values": [{"measurement": "AC50", "setting": "[9]", "value": "2.7 µM (active)"}, {"measurement": "AC50", "setting": "[10]", "value": "4.41 µM (active)"}, {"measurement": "AC50", "setting": "[11]", "value": "4.21 µM (active)"}, {"measurement": "AC50", "setting": "[12]", "value": "2.45 µM (active)"}]}, {"smiles": "COc1cc(/C=C2\\C(=N)N3N=C(S(C)(=O)=O)SC3=NC2=O)ccc1OC(=O)c1ccco1", "values": [{"measurement": "IC50", "setting": "[7]", "value": "4.55 µM (active)"}]}, {"smiles": "COc1ccc(Cl)cc1NC(=O)CN(C)C(=O)CCCc1c[nH]c2ccccc12", "values": [{"measurement": "AC50", "setting": "[9]", "value": "3.29 µM (active)"}, {"measurement": "AC50", "setting": "[10]", "value": "5.13 µM (active)"}, {"measurement": "AC50", "setting": "[11]", "value": "4.6 µM (active)"}, {"measurement": "AC50", "setting": "[12]", "value": "4.68 µM (active)"}]}, {"smiles": "CC(OC(=O)c1ccc(NC(=O)CC#N)cc1)C(=O)NCCC1=CCCCC1", "note": "(stereo unspecified)", "values": [{"measurement": "AC50", "setting": "[10]", "value": "0.439 µM (active)"}]}, {"smiles": "COC(=O)c1ccc(CCc2cc(O)ccc2O)cc1", "values": [{"measurement": "AC50", "setting": "[4]", "value": "14.5 µM (active)"}, {"measurement": "AC50", "setting": "[5]", "value": "3.14 µM (active)"}, {"measurement": "AC50", "setting": "[6]", "value": "> 70 µM (inactive)"}, {"measurement": "AC50", "setting": "Cytochrome P450 2C9", "value": "7.94 µM (inconclusive)"}]}]}
